Experimental data taken from patent US5658913A, “Chemopreventive compounds and a preparation method and use thereof” (Kim; Nak Doo, priority 1993, dated 1997).

Assays:
[1] = system: enzymes involved in phase II reactions; settings: literature; cited from earlier work
[2] = system: p-nitrophenol hydroxylase; experiment: p-Nitrophenol hydroxylase activity in combination with INAH (Experimental Example 2(2)); assay type: in vivo, Sprague-Dawley rat; settings: for p-Nitrophenol hydrolase, Amount: INAH 200 mg/kg i.p., alone or plus compound 200 mg/kg; for inhibition of expression of p-nitrophenol hydroxylase induced by INAH: INAH plus compound, each 200 mg/kg i.p., in words
[3] = system: aniline hydroxylase; experiment: Aniline hydroxylase activity in combination with INAH (Experimental Example 2(2)); assay type: in vivo, Sprague-Dawley rat; settings: for Aniline hydroxylase, Amount: INAH 200 mg/kg i.p., alone or plus compound 200 mg/kg; for Aniline hydroxylase, Activity: INAH alone = 100%; for Aniline hydroxylase, Activity / inhibition of expression of aniline hydroxylase induced by INAH: INAH plus compound, each 200 mg/kg i.p.; for inhibition of expression of aniline hydroxylase induced by INAH: in words
Protocol: Thus, 1 mg of microsomes and 5 mM aniline were added to 0.6 ml of 0.1M potassium phosphate buffer(pH 6.8) to make the total volume of 0.9 ml. 1 mM NADPH was added to make the total volume of 1.0 ml and the resulting mixture was reacted at 37° C. After 10 minutes, 20% trichloroacetic acid was added to stop the reaction and the reaction mixture was centrifuged. To 1 ml of supernatant were added 0.1 ml of 5% phenol and 0.1 ml of 2.5N sodium carbonate, dissolved in 0.1N NaOH. The mixture was allowed to stand for 30 minutes to develop a color and the absorbance at 630 nm was measured at once. The enzyme activity was expressed in terms of mole concentration of 4-aminophenol, the product of reaction for 1 minute.
(§1) In order to examine the effect of the compound of the present invention on the activity of the enzymes involved in phase I reaction when administered in combination with INAH, the experiments were carried out as follows:
(§2) Eight groups of Sprague-Dawley rat weighing 190±30 g were intraperitoneally administered with INAH(Group 1), or INAH plus the compounds of Examples 2 to 8(Groups 2 to 8), each in a dose of 200 mg/kg. The inventive compounds and INAH were diluted with corn oil and PBS respectively, and the test compounds were administered just after administering INAH.
(§3) The changes in the activity of p-nitrophenol hydroxylase and aniline hydroxylase were measured by following the same procedure as in Experimental Example 1(2-1) and (2-2). The activity of enzymes was determined by considering the activity of enzyme when INAH alone was administered as 100%.

[4] = system: Glutathion S-transferase (GST); experiment: GST activity, administered alone or in combination with INAH (Experimental Example 4(2)); assay type: in vivo, Sprague-Dawley rat; settings: for induction of expression of glutathione S-transferase when INAH is administered: in words; for increase of expression of glutathione S-transferase: Table 3
Protocol: Thus, to 25 μg(0.1 ml) of cytosol protein were added 0.1 mM […] and 1.0 mM glutathione as substrates, and 0.1M potassium phosphate were added to make the total volume of 1.0 ml(pH 6.4). The resulting mixture was allowed to stand at room temperature for 2 minutes and measured for its absorbance at 340 nm at intervals of 15 seconds during the period of 1 minute. As a reference, a cytosol protein denatured by heating was used. The activity of GST was calculated by measuring the change of absorbance for the period of 1 minute and employing the extinction coefficient of 9.6 mM^-1 cm^-1.
In order to examine the effect of the compound of the present invention on the activity of the enzymes involved in phase II reaction when administered alone or in combination with INAH, the experiments were carried out as follows:
Sixteen groups of Sprague-Dawley rat weighing 190±30 g were intraperitoneally administered with corn oil(Group 1), compounds of Examples 2 to 8(Groups 2 to 8), INAH(Group 9), or INAH plus the compounds of Examples 2 to 8(Groups 10 to 16), each in a dose of 200 mg/kg. The inventive compounds and INAH were diluted with corn oil, and the test compounds were administered just after administering INAH.
The change in the activity of GST was measured by following the same procedure as in Experimental Example 3(2). The activity of enzyme was determined by considering the activity of enzyme when corn oil or INAH alone was administered as 100%.

[5] = system: p-nitrophenol hydroxylase; experiment: p-Nitrophenol hydroxylase activity in combination with INAH (Experimental Example 2(2)); assay type: in vivo, Sprague-Dawley rat; settings: INAH alone = 100%; INAH plus compound, each 200 mg/kg i.p.
Protocol: Thus, 1 mg of microsomes and 1mM p-nitrophenol were added to 0.6 ml of 0.1M potassium phosphate buffer(pH 6.8) to make the total volume of 0.9 ml. The resulting mixture was preliminarily reacted in a 37° C. incubator for 2 minutes and started to react while adding 1 mM NADPH(0.1 ml). After 3 minutes, 0.5 ml of 0.6N perchloric acid was added to develop a color and the absorbance at 546 nm was measured at once. The enzyme activity was expressed in terms of mole concentration of 4-nitrocatechol, the product of reaction for 1 minute.
as §1, §2, §3

[6] = system: P450 2E1; experiment: Immunoblot analysis of P-450 2E1 expression when administered together with INAH (Experimental Example 2(1)); assay type: in vivo, Sprague-Dawley rat; settings: 200 mg/kg i.p. plus INAH 200 mg/kg; FIG. 5
Protocol: To the first group as a control group, corn oil was administered intraperitoneally in an amount of 0.1 ml/200 g body weight. The second group was administered intraperitoneally INAH diluted with PBS in a dose of 200 mg/kg body weight. […] The hepatic microsomes were separated and subjected to Western blot analysis on SDS-PAGE by following the same procedure as in the above Experimental Example 1 (1).

[7] = system: cancers; settings: literature; cited from earlier work
[8] = system: cytochrome P-450 2E1; settings: cited from earlier work; for effect on cytochrome P-450 2E1 expression: literature / inventors' submitted paper
[9] = INAH alone or INAH plus compound, each 200 mg/kg i.p.
[10] = INAH plus compound, each 200 mg/kg i.p., INAH alone = 100%
[11] = compound alone, 200 mg/kg i.p., corn oil = 100%

Molecule	induction of enzymes involved in phase II reactions [1]	p-Nitrophenol hydrolase, Amount [2] [nmol/min/mg protein]	Aniline hydroxylase, Amount [3] [nmol/min/mg protein]	Aniline hydroxylase, Activity [3] [%]	Glutathion S-transferase, Amount [4, 9] [nmol/min/mg protein]	Glutathion S-transferase, Activity [4, 10] [%]	Glutathion S-transferase, Amount ([4]; compound alone, 200 mg/kg i.p.) [nmol/min/mg protein]	Glutathion S-transferase, Activity [4, 11] [%]	p-Nitrophenol hydrolase, Activity [5] [%]	induction of expression of glutathione S-transferase when INAH is administered ([4]; INAH plus compound)	increase of expression of glutathione S-transferase ([4]; compound alone, 200 mg/kg i.p.) [%]	inhibition of expression of p-nitrophenol hydroxylase induced by INAH [2]	inhibition of expression of aniline hydroxylase induced by INAH [3]	suppression of enzyme (P450 2E1) expression induced by INAH [6]	cancer suppression [7]	suppression of cytochrome P-450 2E1 induced by pyrazine ([8]; inventors' submitted paper)	effect on cytochrome P-450 2E1 expression [8]
2(3)-tert-butyl-4-hydroxyanisole [butylhydroxyanisole]	shows an anti-cancer activity by inducing enzymes involved in phase II reactions	–	–	–	–	–	–	–	–	–	–	–	–	–	–	–	–
c1ccc(CSc2cnccn2)cc1 [Example 2, 2-(benzylthio)pyrazine]	–	4.52	1.070	74	2.675	133	2.533	147	78	–	–	–	–	–	–	–	–
CC(C)=CCSc1cnccn1 [Example 3, 2-(3-methyl-2-butenylthio)pyrazine]	–	4.23	1.108	76	3.071	153	2.708	157	73	strongly induce expression of enzyme	–	–	–	–	–	–	–
C(=Cc1ccccc1)CSc1cnccn1 [Example 4, 2-(cinnamylthio)pyrazine]	–	3.69	0.972	67	2.683	134	2.892	168	64	–	–	–	–	–	–	–	–
c1coc(CSc2cnccn2)c1 [Example 5, 2-(furfurylthio)pyrazine]	–	3.53	0.972	67	3.029	151	2.996	174	61	strongly induce expression of enzyme	≥ 70	–	–	–	–	–	–
C=C(C)CCSc1cnccn1 [Example 6, 2-(3-methyl-3-butenylthio)pyrazine]	–	3.25	0.879	60	2.375	118	2.558	148	56	–	–	–	–	–	–	–	–
CC=CCSc1cnccn1 [Example 7, 2-(2-butenylthio)pyrazine]	–	2.33	0.712	49	2.263	113	3.046	177	40	–	≥ 70	superior inhibitory action	superior inhibitory action	–	–	–	–
C=CC(C)Sc1cnccn1 (stereo not drawn) [Example 8]	–	2.33	0.659	45	2.808	140	3.290	181	40	strongly induce expression of enzyme	≥ 70	superior inhibitory action	superior inhibitory action	strongest suppression	–	–	–
NNC(=O)c1ccncc1 [INAH, isoniazid, reference compound]	–	5.80	1.453	100	2.008	100	–	–	100	–	–	–	–	–	–	–	–
Cc1c(-c2cnccn2)ssc1=S [Oltipraz]	ability of inducing enzymes of phase II reactions	–	–	–	–	–	–	–	–	–	–	–	–	–	can suppress lung and stomach cancers	–	–
C=CCSCC=C [allylsulfide, diallylsulfide]	–	–	–	–	–	–	–	–	–	–	–	–	–	–	strongly suppress liver and colon cancers	completely suppress cytochrome P-450 2E1 induced by the action of pyrazine	strongly inhibits the expression of cytochrome P-450 2E1
Cc1cc(C(C)(C)C)c(O)c(C(C)(C)C)c1 [butylhydroxytoluene, 3,5-ditert-butyl-4-hydroxytoluene]	shows a anti-cancer activity by inducing enzymes involved in phase II reactions	–	–	–	–	–	–	–	–	–	–	–	–	–	–	–	–
c1cnccn1 [pyrazine]	–	–	–	–	–	–	–	–	–	–	–	–	–	–	–	–	inducing cytochrome P-450 2E1
